Columns and labels:
Assay in all cases: biochemical
Conditions in all cases: read-out: % inhibition mean (Z'Lyte)
GRK6 = GRK6 (Homo sapiens, UniProt P43250)
CDK18/cyclin Y = CDK18/cyclin Y (Homo sapiens, UniProt Q07002)
AMPK (A1/B2/G3) = AMPK (A1/B2/G3) (Homo sapiens, UniProt Q13131)
[1] = target: EGFR (ErbB1) T790M C797S L858R (Homo sapiens, UniProt P00533, C797S/L858R/T790M)
ABL1 E255K = ABL1 E255K (Homo sapiens, UniProt P00519, E255K)
FGR = FGR (Homo sapiens, UniProt P09769)
DCAMKL2 (DCK2) = DCAMKL2 (DCK2) (Homo sapiens, UniProt Q8N568)
CSNK2A1 (CK2 alpha 1) = CSNK2A1 (CK2 alpha 1) (Homo sapiens, UniProt P68400)
RPS6KA4 (MSK2) = RPS6KA4 (MSK2) (Homo sapiens, UniProt O75676)
PRKD1 (PKC mu) = PRKD1 (PKC mu) (Homo sapiens, UniProt Q15139)
MET (cMet) Y1235D = MET (cMet) Y1235D (Homo sapiens, UniProt P08581, Y1235D)
GSK3A (GSK3 alpha) = GSK3A (GSK3 alpha) (Homo sapiens, UniProt P49840)
KIT T670I = KIT T670I (Homo sapiens, UniProt P10721, T670I)
RET V804E = RET V804E (Homo sapiens, UniProt P07949, V804E)
PAK6 = PAK6 (Homo sapiens, UniProt Q9NQU5)
EGFR (ErbB1) G719S = EGFR (ErbB1) G719S (Homo sapiens, UniProt P00533, G719S)
CSNK1A1 (CK1 alpha 1) = CSNK1A1 (CK1 alpha 1) (Homo sapiens, UniProt P48729)
FLT3 = FLT3 (Homo sapiens, UniProt P36888)
ABL1 F317I = ABL1 F317I (Homo sapiens, UniProt P00519, F317I)
MAP4K5 (KHS1) = MAP4K5 (KHS1) (Homo sapiens, UniProt Q9Y4K4)
KDR (VEGFR2) = KDR (VEGFR2) (Homo sapiens, UniProt P35968)
PAK2 (PAK65) = PAK2 (PAK65) (Homo sapiens, UniProt Q13177)
RPS6KA1 (RSK1) = RPS6KA1 (RSK1) (Homo sapiens, UniProt Q15418)
MAP4K2 (GCK) = MAP4K2 (GCK) (Homo sapiens, UniProt Q12851)
PASK = PASK (Homo sapiens, UniProt Q96RG2)
PRKACA (PKA) = PRKACA (PKA) (Homo sapiens, UniProt P17612)
MAPKAPK3 = MAPKAPK3 (Homo sapiens, UniProt Q16644)
FLT3 D835Y = FLT3 D835Y (Homo sapiens, UniProt P36888, D835Y)

PAK6, sequence (Q9NQU5 whole entry): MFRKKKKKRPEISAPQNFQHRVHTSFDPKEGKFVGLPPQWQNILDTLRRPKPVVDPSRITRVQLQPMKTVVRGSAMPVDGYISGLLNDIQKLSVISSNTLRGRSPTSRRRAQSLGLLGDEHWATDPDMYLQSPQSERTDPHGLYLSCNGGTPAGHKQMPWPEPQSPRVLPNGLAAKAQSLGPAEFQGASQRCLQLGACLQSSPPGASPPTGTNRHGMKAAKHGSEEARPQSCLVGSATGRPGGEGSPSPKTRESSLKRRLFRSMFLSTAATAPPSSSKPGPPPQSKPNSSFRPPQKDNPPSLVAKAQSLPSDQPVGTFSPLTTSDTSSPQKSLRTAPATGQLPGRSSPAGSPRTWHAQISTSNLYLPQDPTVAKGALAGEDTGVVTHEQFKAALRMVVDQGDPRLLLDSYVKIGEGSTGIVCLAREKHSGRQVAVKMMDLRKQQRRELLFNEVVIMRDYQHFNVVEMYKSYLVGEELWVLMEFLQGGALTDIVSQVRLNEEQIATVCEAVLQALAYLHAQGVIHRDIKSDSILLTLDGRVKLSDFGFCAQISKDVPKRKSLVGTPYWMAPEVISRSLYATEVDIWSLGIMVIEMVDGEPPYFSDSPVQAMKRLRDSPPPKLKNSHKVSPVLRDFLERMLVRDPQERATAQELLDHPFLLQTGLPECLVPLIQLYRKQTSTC
PAK2 (PAK65), sequence (Q13177 whole entry): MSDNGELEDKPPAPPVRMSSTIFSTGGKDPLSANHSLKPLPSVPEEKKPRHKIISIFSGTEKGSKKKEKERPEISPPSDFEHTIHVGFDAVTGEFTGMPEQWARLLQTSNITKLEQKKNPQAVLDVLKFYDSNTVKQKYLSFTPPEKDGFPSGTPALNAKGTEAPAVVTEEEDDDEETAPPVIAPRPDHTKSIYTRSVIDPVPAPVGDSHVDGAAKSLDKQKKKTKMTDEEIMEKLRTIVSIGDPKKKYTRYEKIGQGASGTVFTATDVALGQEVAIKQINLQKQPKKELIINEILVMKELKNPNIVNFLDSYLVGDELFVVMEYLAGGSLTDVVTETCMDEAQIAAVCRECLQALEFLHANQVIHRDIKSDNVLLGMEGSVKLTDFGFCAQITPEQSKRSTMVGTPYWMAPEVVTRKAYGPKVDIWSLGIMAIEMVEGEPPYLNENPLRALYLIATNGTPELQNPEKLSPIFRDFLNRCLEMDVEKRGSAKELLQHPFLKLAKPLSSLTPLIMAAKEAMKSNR
KIT T670I, sequence (P10721 whole entry T670I): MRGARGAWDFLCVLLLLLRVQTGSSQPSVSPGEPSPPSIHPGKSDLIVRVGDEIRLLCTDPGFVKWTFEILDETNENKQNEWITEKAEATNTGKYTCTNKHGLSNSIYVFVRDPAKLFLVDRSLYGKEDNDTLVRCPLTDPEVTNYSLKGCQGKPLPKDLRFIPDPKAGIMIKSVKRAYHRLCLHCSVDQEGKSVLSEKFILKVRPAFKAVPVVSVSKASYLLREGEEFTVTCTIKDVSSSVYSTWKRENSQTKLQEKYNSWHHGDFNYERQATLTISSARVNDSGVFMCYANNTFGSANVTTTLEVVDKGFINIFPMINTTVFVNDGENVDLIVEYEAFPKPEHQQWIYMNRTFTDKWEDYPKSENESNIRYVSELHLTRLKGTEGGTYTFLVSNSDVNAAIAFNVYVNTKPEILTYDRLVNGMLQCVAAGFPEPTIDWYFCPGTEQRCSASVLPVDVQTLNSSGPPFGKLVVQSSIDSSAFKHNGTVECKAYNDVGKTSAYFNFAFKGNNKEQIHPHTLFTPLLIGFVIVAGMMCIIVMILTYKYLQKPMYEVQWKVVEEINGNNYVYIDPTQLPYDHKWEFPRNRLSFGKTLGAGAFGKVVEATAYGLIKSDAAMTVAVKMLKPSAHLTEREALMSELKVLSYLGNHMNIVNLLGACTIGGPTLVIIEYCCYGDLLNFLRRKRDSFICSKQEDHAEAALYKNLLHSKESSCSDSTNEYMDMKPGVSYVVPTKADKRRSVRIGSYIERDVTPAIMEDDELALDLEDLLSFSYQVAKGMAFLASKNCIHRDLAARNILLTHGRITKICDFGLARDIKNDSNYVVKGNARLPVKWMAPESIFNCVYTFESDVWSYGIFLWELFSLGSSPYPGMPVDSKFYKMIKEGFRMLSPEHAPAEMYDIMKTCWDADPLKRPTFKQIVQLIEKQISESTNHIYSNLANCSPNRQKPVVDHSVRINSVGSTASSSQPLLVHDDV
DCAMKL2 (DCK2), sequence (Q8N568 whole entry): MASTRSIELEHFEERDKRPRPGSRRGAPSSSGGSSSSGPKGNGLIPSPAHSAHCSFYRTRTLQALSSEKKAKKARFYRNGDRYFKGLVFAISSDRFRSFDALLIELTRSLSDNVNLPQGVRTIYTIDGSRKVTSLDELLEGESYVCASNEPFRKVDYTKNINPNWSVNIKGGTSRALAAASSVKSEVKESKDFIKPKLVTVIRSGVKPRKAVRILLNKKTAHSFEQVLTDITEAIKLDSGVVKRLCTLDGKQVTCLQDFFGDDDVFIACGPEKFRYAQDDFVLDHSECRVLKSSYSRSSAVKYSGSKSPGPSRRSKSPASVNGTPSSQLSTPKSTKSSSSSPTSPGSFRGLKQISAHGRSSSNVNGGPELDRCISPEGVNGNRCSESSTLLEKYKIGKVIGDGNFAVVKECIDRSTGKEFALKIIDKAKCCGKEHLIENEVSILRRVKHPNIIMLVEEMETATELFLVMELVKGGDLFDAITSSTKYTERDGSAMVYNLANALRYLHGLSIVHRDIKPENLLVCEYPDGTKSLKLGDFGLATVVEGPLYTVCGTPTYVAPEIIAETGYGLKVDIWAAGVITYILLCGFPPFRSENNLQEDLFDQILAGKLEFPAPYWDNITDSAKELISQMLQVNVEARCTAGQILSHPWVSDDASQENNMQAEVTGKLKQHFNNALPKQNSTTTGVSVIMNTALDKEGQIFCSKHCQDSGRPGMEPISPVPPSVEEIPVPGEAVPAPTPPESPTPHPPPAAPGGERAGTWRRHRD
GSK3A (GSK3 alpha), sequence (P49840 whole entry): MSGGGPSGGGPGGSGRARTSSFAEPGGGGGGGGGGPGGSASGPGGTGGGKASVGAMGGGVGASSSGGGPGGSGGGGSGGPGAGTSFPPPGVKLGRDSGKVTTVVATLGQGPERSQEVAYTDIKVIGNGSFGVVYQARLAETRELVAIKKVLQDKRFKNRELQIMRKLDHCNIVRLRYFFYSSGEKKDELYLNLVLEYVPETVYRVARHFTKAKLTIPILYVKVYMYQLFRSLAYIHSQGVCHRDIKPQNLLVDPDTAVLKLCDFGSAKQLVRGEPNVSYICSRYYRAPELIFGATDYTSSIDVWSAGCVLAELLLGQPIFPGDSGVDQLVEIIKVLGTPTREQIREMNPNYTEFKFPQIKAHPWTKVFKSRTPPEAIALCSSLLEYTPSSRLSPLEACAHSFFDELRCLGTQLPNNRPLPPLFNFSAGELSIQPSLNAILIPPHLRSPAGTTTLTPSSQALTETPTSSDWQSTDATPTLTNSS
GRK6, sequence (P43250 whole entry): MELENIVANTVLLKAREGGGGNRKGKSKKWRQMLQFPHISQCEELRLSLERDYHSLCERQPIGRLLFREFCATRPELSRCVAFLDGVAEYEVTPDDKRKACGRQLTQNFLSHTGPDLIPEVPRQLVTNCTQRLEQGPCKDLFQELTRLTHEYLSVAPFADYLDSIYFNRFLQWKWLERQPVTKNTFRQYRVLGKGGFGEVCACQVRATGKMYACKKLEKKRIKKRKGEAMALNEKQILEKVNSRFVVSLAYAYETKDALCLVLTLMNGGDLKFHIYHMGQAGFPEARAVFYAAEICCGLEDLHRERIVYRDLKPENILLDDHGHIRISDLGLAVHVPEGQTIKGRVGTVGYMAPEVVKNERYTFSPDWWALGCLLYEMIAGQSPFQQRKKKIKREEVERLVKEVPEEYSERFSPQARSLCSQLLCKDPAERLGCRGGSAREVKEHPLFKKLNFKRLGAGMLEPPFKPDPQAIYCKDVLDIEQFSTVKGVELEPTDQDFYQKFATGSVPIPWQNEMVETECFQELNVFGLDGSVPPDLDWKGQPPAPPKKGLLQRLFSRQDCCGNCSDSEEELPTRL
CSNK1A1 (CK1 alpha 1), sequence (P48729 whole entry): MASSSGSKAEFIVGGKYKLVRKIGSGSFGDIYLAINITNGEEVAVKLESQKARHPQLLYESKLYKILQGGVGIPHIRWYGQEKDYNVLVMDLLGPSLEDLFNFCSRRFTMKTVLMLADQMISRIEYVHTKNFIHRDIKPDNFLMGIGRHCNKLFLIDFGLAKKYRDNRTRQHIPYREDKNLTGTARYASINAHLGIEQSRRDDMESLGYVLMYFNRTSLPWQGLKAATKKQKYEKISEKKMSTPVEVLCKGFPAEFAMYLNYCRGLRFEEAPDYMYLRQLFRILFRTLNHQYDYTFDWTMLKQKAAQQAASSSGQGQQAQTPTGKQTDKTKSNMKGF
FGR, sequence (P09769 whole entry): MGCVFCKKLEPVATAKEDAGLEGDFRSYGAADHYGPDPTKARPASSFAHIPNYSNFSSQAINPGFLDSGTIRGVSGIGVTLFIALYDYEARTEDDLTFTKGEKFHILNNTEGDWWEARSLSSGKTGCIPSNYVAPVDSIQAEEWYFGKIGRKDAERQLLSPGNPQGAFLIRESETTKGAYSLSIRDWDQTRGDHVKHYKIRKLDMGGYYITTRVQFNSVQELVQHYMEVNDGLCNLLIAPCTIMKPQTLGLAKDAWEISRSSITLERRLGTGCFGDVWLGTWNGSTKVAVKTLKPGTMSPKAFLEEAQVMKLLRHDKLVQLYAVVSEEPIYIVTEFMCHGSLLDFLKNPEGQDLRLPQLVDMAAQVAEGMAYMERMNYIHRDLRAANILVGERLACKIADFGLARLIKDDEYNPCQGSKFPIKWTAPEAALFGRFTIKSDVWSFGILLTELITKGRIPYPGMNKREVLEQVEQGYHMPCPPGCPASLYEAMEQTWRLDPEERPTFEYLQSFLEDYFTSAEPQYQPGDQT

COc1ccc2nc3cc(Cl)ccc3c(Nc3cc(CN4CCCC4)c(O)c(CN4CCCC4)c3)c2n1 [Pyronaridine, 4-[(7-Chloro-2-methoxybenzo[b][1,5]naphthyridin-10-yl)amino]-2,6-bis(1-pyrrolidinylmethyl)phenol phosphate (1:4)] gave an inhibition at 1 µM (GRK6) of -1%, an inhibition at 1 µM (CDK18/cyclin Y) of 1% and an inhibition at 1 µM (AMPK (A1/B2/G3)) of 4%. For the same molecule, the inhibition at 1 µM [1] was 2%, the inhibition at 1 µM (ABL1 E255K) was 7% and the inhibition at 1 µM (FGR) was 11%. It also gave an inhibition at 1 µM (DCAMKL2 (DCK2)) of -1%, an inhibition at 1 µM (CSNK2A1 (CK2 alpha 1)) of 7% and an inhibition at 1 µM (RPS6KA4 (MSK2)) of -4%. For the same molecule, the inhibition at 1 µM (PRKD1 (PKC mu)) was -2%, the inhibition at 1 µM (MET (cMet) Y1235D) was 4% and the inhibition at 1 µM (GSK3A (GSK3 alpha)) was 4%. The inhibition at 1 µM (KIT T670I) was 1%, the inhibition at 1 µM (RET V804E) was 2% and the inhibition at 1 µM (PAK6) was -2%. For the same molecule, the inhibition at 1 µM (EGFR (ErbB1) G719S) was -5%, the inhibition at 1 µM (CSNK1A1 (CK1 alpha 1)) was 5% and the inhibition at 1 µM (FLT3) was 3%. The inhibition at 1 µM (ABL1 F317I) was 0%, the inhibition at 1 µM (MAP4K5 (KHS1)) was 5% and the inhibition at 1 µM (KDR (VEGFR2)) was 7%. For the same molecule, the inhibition at 1 µM (PAK2 (PAK65)) was -1%, the inhibition at 1 µM (RPS6KA1 (RSK1)) was -1% and the inhibition at 1 µM (MAP4K2 (GCK)) was 5%. The inhibition at 1 µM (PASK) was -4%, the inhibition at 1 µM (PRKACA (PKA)) was 1% and the inhibition at 1 µM (MAPKAPK3) was 17%. It also gave an inhibition at 1 µM (FLT3 D835Y) of 2%.
